According to ChEMBL document CHEMBL4177585, “Discovery of berberine based derivatives as anti-influenza agent through blocking of neuraminidase” (Bioorg Med Chem, 2017):
Converted amounts (≈) assume the structure as drawn. The source made the active and inactive calls. No cut-off for these calls is given here.

Assays:
Influenza A virus [1] = assay: Antiviral activity against Influenza A virus (A/Puerto Rico/8/1934(H1N1)) infected in MDCK cells assessed as reduction in virus-induced cytopathogenicity incubated for 48 hrs by SRB assay; type: functional, organism-based
Influenza B virus [2] = assay: Antiviral activity against Influenza B virus (B/Lee/40) infected in MDCK cells assessed as reduction in virus-induced cytopathogenicity incubated for 48 hrs by SRB assay; type: functional, organism-based; settings: B/Lee/1940, MDCK
Influenza A virus [3] = assay: Antiviral activity against Influenza A virus (A/Puerto Rico/8/1934(H1N1)) infected in MDCK cells assessed as reduction in virus-induced cytopathogenicity at 1 ug/ml treated before virus infection and measured after 48 hrs by SRB assay relative to untreated control; type: functional
[4] = target: Neuraminidase (Influenza A virus (A/Puerto Rico/8/1934(H1N1)), UniProt P03468); assay: Inhibition of neuraminidase in influenza A virus (A/Puerto Rico/8/1934(H1N1)) pre-incubated for 30 mins before NA-Star substrate addition for 30 mins by luminescence based assay
Sequence of Neuraminidase (Influenza A virus (A/Puerto Rico/8/1934(H1N1)), UniProt P03468) (P03468 whole entry): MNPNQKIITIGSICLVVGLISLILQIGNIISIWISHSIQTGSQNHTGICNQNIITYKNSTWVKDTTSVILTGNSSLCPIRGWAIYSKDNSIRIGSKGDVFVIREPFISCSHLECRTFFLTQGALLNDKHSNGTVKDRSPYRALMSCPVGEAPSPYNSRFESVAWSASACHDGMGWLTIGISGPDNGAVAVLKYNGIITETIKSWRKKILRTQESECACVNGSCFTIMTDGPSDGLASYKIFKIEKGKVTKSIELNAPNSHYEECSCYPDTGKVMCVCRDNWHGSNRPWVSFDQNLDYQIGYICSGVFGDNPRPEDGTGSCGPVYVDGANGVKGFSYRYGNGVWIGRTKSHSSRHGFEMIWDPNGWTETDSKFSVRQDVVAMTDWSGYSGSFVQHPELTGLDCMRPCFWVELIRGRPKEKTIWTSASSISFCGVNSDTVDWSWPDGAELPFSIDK

Influenza A virus [5] = assay: Antiviral activity against Influenza A virus (A/Puerto Rico/8/1934(H1N1)) infected in MDCK cells assessed as reduction in virus-induced cytopathogenicity at 1 ug/ml pre-incubated for 1 hr with virus before virus infection of cells and measured after 48 hrs by SRB assay; type: functional, organism-based
Influenza B virus [6] = assay: Antiviral activity against Influenza B virus (B/Maryland/1/59) infected in MDCK cells assessed as reduction in virus-induced cytopathogenicity incubated for 48 hrs by SRB assay; type: functional, organism-based
[7] = Cytotoxicity against MDCK cells incubated for 48 hrs assessed as reduction in cell viability by SRB assay; type: cell-based, Canis lupus familiaris; settings: dog
Influenza A virus [8] = assay: Antiviral activity against Influenza A virus (A/Victoria/3/1975(H3N2)) infected in MDCK cells assessed as reduction in virus-induced cytopathogenicity incubated for 48 hrs by SRB assay; type: functional, organism-based
Influenza A virus [9] = assay: Antiviral activity against Influenza A virus (A/Puerto Rico/8/1934(H1N1)) infected in MDCK cells assessed as reduction in virus-induced cytopathogenicity treated 2 hrs after virus infection and measured after 48 hrs by SRB assay; type: functional, organism-based
Influenza A virus [10] = assay: Antiviral activity against Influenza A virus (A/Puerto Rico/8/1934(H1N1)) infected in MDCK cells assessed as reduction in virus-induced cytopathogenicity treated immediately after virus infection and measured after 48 hrs by SRB assay; type: functional, organism-based
Influenza A virus [11] = assay: Antiviral activity against Influenza A virus (A/Puerto Rico/8/1934(H1N1)) infected in MDCK cells assessed as reduction in virus-induced cytopathogenicity treated 4 hrs after virus infection and measured after 48 hrs by SRB assay; type: functional, organism-based
Influenza A virus [12] = assay: Antiviral activity against Influenza A virus (A/Puerto Rico/8/1934(H1N1)) infected in MDCK cells assessed as reduction in virus-induced cytopathogenicity treated 24 hrs after virus infection and measured after 48 hrs by SRB assay; type: functional, organism-based
[13] = target: Neuraminidase (Influenza A virus (A/Puerto Rico/8/1934(H1N1))) (UniProt P03468); assay: Inhibition of neuraminidase in influenza A virus (A/Puerto Rico/8/1934(H1N1)) assessed as remaining enzyme activity at 10 ug/ml pre-incubated for 30 mins before NA-Star substrate addition for 30 mins by luminescence based assay
Sequence of Neuraminidase (Influenza A virus (A/Puerto Rico/8/1934(H1N1))) (P03468 whole entry): as above

Influenza A virus [14] = assay: Antiviral activity against Influenza A virus (A/Puerto Rico/8/1934(H1N1)) infected in MDCK cells assessed as reduction in virus-induced cytopathogenicity treated 6 hrs before virus infection and measured after 48 hrs by SRB assay; type: functional, organism-based
[15] = target: Neuraminidase (Influenza A virus (A/Puerto Rico/8/1934(H1N1))) (UniProt P03468); assay: Inhibition of neuraminidase in influenza A virus (A/Puerto Rico/8/1934(H1N1)) assessed as remaining enzyme activity at 1 ug/ml pre-incubated for 30 mins before NA-Star substrate addition for 30 mins by luminescence based assay
Influenza A virus [16] = assay: Antiviral activity against Influenza A virus (A/Puerto Rico/8/1934(H1N1)) infected in MDCK cells assessed as reduction in virus-induced cytopathogenicity treated 2 hrs before virus infection and measured after 48 hrs by SRB assay; type: functional, organism-based
Influenza A virus [17] = assay: Antiviral activity against Influenza A virus (A/Puerto Rico/8/1934(H1N1)) infected in MDCK cells assessed as reduction in virus-induced cytopathogenicity treated 7 hrs after virus infection and measured after 48 hrs by SRB assay; type: functional, organism-based
Influenza A virus [18] = assay: Antiviral activity against Influenza A virus (A/Puerto Rico/8/1934(H1N1)) infected in MDCK cells assessed as reduction in virus-induced cytopathogenicity treated 1 hr before virus infection and measured after 48 hrs by SRB assay; type: functional, organism-based
[19] = target: Neuraminidase (Influenza A virus (A/Puerto Rico/8/1934(H1N1))) (UniProt P03468); assay: Inhibition of neuraminidase in influenza A virus (A/Puerto Rico/8/1934(H1N1)) assessed as remaining enzyme activity at 0.1 ug/ml pre-incubated for 30 mins before NA-Star substrate addition for 30 mins by luminescence based assay
Influenza A virus [20] = assay: Antiviral activity against Influenza A virus (A/Puerto Rico/8/1934(H1N1)) infected in MDCK cells assessed as reduction in virus-induced cytopathogenicity treated 1 hr after virus infection and measured after 48 hrs by SRB assay; type: functional, organism-based
Influenza A virus [21] = assay: Antiviral activity against Influenza A virus (A/Puerto Rico/8/1934(H1N1)) infected in MDCK cells assessed as reduction in virus-induced cytopathogenicity treated 12 hrs after virus infection and measured after 48 hrs by SRB assay; type: functional, organism-based

Row | Compound | IC50 (Influenza A virus [1]) | Ki [4] | CC50 at 48 h [7] | also measured
1 | COc1cc(CN2CCN(c3ccccc3Cl)CC2)c2cc3[n+](cc2c1O)CCc1cc2c(cc1-3)OCO2.[Cl-] | 1.63 µg/mL | 2650 nM | 401 µg/mL | IC50 (Influenza B virus [2]): 6.33 µg/mL; inhibition at 1 µg/mL (Influenza A virus [3]): 22.1%; Activity (Influenza A virus [5]): Active; IC50 (Influenza B virus [6]): 4.17 µg/mL; IC50 (Influenza A virus [8]): 2.98 µg/mL
2 | COc1cc(CN2CCN(c3ccc(F)cc3)CC2)c2cc3[n+](cc2c1O)CCc1cc2c(cc1-3)OCO2.[Cl-] | 0.87 µg/mL | 480 nM | 72.6 µg/mL | IC50 (Influenza A virus [9]): 1.19 µg/mL; IC50 (Influenza A virus [10]): 0.89 µg/mL; IC50 (Influenza B virus [2]): 4.12 µg/mL; IC50 (Influenza A virus [11]): 1.75 µg/mL; IC50 (Influenza A virus [12]): > 100 µg/mL; inhibition at 1 µg/mL (Influenza A virus [3]): 48.3%; Activity [13]: 16.6%; IC50 (Influenza A virus [14]): 52.4 µg/mL; Activity (Influenza A virus [5]): Active; IC50 (Influenza B virus [6]): 3.12 µg/mL; Activity [15]: 23.4%; IC50 (Influenza A virus [16]): 21.3 µg/mL; IC50 (Influenza A virus [17]): 9.38 µg/mL; IC50 (Influenza A virus [18]): 3.4 µg/mL; Activity [19]: 43.1%; IC50 (Influenza A virus [8]): 1.15 µg/mL; IC50 (Influenza A virus [20]): 1.22 µg/mL; IC50 (Influenza A virus [21]): 23.2 µg/mL
3 | COc1cc(CN2CCN(c3ccccc3F)CC2)c2cc3[n+](cc2c1O)CCc1cc2c(cc1-3)OCO2.[Cl-] | 9.16 µg/mL | 5200 nM | 68.8 µg/mL | –
4 | COc1ccc2cc3[n+](cc2c1OC)CCc1cc2c(cc1-3)OCO2 [BERBERINE] | 31.3 µg/mL | 14300 nM | 70.2 µg/mL | inhibition at 1 µg/mL (Influenza A virus [3]): 12.1%; Activity (Influenza A virus [5]): Active
5 | COc1cc(CN2CCN(c3ccc(C(F)(F)F)cc3)CC2)c2cc3[n+](cc2c1O)CCc1cc2c(cc1-3)OCO2.[Cl-] | 10 µg/mL | 1590 nM | – | –
6 | COc1cc(CN2CCN(c3ccc(OC(F)(F)F)cc3)CC2)c2cc3[n+](cc2c1O)CCc1cc2c(cc1-3)OCO2.[Cl-] | 8.45 µg/mL | 490 nM | 312 µg/mL | –
7 | COc1cc(CN2CCN(c3ccccn3)CC2)c2cc3[n+](cc2c1O)CCc1cc2c(cc1-3)OCO2.[Cl-] | 2.64 µg/mL | 170 nM | 185 µg/mL | –
8 | COc1cc(Cn2c3ccccc3c3ccccc32)c2cc3[n+](cc2c1O)CCc1cc2c(cc1-3)OCO2.[Cl-] | 9.79 µg/mL | 490 nM | 62.6 µg/mL | –
9 | COc1ccc(N2CCN(Cc3cc(OC)c(O)c4c[n+]5c(cc34)-c3cc4c(cc3CC5)OCO4)CC2)c(OC)c1.[Cl-] | 47.8 µg/mL | 1590 nM | – | –
10 | COc1cc(CN2CCN(c3ccc(Cl)cc3)CC2)c2cc3[n+](cc2c1O)CCc1cc2c(cc1-3)OCO2.[Cl-] | 45.3 µg/mL | 960 nM | 480 µg/mL | –
11 | COc1cc(CN2CCN(C(=O)c3ccccc3)CC2)c2cc3[n+](cc2c1O)CCc1cc2c(cc1-3)OCO2.[Cl-] | > 50 µg/mL | 580 nM | 424 µg/mL | –
12 | COc1cc(CN2CCCCC2)c2cc3[n+](cc2c1O)CCc1cc2c(cc1-3)OCO2.[Cl-] | > 50 µg/mL | 680 nM | 1640 µg/mL | –
13 | COc1cc(CN2CCOCC2)c2cc3[n+](cc2c1O)CCc1cc2c(cc1-3)OCO2.[Cl-] | 44.3 µg/mL | 480 nM | 126 µg/mL | –
14 | COc1cc(CN2CCN(c3cccc(Cl)c3Cl)CC2)c2cc3[n+](cc2c1O)CCc1cc2c(cc1-3)OCO2.[Cl-] | 8.37 µg/mL | 350 nM | 63.2 µg/mL | –
15 | COc1cc(CN2CCN(c3ccc([N+](=O)[O-])cc3)CC2)c2cc3[n+](cc2c1O)CCc1cc2c(cc1-3)OCO2.[Cl-] | > 50 µg/mL | 1330 nM | 1380 µg/mL | –
16 | COc1cc(CN2CCN(c3ncccn3)CC2)c2cc3[n+](cc2c1O)CCc1cc2c(cc1-3)OCO2.[Cl-] | 2.65 µg/mL | 70 nM | 223 µg/mL | –
17 | COc1cc(CN2CCN(c3cccc(Cl)c3)CC2)c2cc3[n+](cc2c1O)CCc1cc2c(cc1-3)OCO2.[Cl-] | 29.6 µg/mL | 250 nM | – | –
18 | COc1cc(CN2CCN(c3ccccc3[N+](=O)[O-])CC2)c2cc3[n+](cc2c1O)CCc1cc2c(cc1-3)OCO2.[Cl-] | > 50 µg/mL | 1340 nM | 230 µg/mL | –
19 | CCOC(=O)C1=C[C@@H](OC(CC)CC)[C@H](NC(C)=O)[C@@H](N)C1 [OSELTAMIVIR] | 3.19 µg/mL (≈ 10.2 µM) | – | – | IC50 (Influenza A virus [9]): 6.05 µg/mL (≈ 19.4 µM); IC50 (Influenza A virus [10]): 4.12 µg/mL (≈ 13.2 µM); IC50 (Influenza B virus [2]): 41.9 µg/mL (≈ 134 µM); IC50 (Influenza A virus [11]): 7.39 µg/mL (≈ 23.7 µM); IC50 (Influenza A virus [12]): > 100 µg/mL; inhibition at 1 µg/mL (Influenza A virus [3]): 25.7%; Activity [13]: 22.6%; IC50 (Influenza A virus [14]): > 100 µg/mL; Activity (Influenza A virus [5]): Active; IC50 (Influenza B virus [6]): 33.2 µg/mL (≈ 106 µM); Activity [15]: 32.9%; IC50 (Influenza A virus [16]): 71.5 µg/mL (≈ 229 µM); IC50 (Influenza A virus [17]): 12.8 µg/mL (≈ 40.8 µM); IC50 (Influenza A virus [18]): 69.8 µg/mL (≈ 223 µM); Activity [19]: 41.9%; IC50 (Influenza A virus [8]): 12.1 µg/mL (≈ 38.9 µM); IC50 (Influenza A virus [20]): 6.13 µg/mL (≈ 19.6 µM); IC50 (Influenza A virus [21]): 84.3 µg/mL (≈ 270 µM)
20 | COc1cc(CN2CCN(c3ccc(C)cc3)CC2)c2cc3[n+](cc2c1O)CCc1cc2c(cc1-3)OCO2.[Cl-] | 1.48 µg/mL | 290 nM | 68.5 µg/mL | IC50 (Influenza B virus [2]): 6.17 µg/mL; inhibition at 1 µg/mL (Influenza A virus [3]): 25.3%; Activity (Influenza A virus [5]): Active; IC50 (Influenza B virus [6]): 5.1 µg/mL; IC50 (Influenza A virus [8]): 2.13 µg/mL
21 | COc1cc(CN2CCN(c3ccc(F)cc3F)CC2)c2cc3[n+](cc2c1O)CCc1cc2c(cc1-3)OCO2.[Cl-] | 9.92 µg/mL | 410 nM | 73.9 µg/mL | –
22 | COc1cc(CN2CCN(c3ccc(C)cc3C)CC2)c2cc3[n+](cc2c1O)CCc1cc2c(cc1-3)OCO2.[Cl-] | 60.1 µg/mL | 420 nM | 134 µg/mL | –
23 | COc1cc(CN2CCN(c3ccc4ccccc4c3)CC2)c2cc3[n+](cc2c1O)CCc1cc2c(cc1-3)OCO2.[Cl-] | 20 µg/mL | 240 nM | 150 µg/mL | –
24 | COc1cc(CN2CCN(C(c3ccccc3)c3ccccc3)CC2)c2cc3[n+](cc2c1O)CCc1cc2c(cc1-3)OCO2.[Cl-] | 3.14 µg/mL | 490 nM | – | –
